Test results taken from ChEMBL document CHEMBL1909046, “DrugMatrix in vitro pharmacology data”.

Experiments:
Interstitial collagenase = biological target: T1, Interstitial collagenase (Homo sapiens, UniProt P03956); experiment: biochemical; format: tissue-based, Rheumatoid synovial fibroblasts;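 also: MMP-1 enzyme inhibition assay using a peptide substrate; in other assays of this panel Not Active means under 50% inhibition at 10 µM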
T1 sequence (P03956 whole entry): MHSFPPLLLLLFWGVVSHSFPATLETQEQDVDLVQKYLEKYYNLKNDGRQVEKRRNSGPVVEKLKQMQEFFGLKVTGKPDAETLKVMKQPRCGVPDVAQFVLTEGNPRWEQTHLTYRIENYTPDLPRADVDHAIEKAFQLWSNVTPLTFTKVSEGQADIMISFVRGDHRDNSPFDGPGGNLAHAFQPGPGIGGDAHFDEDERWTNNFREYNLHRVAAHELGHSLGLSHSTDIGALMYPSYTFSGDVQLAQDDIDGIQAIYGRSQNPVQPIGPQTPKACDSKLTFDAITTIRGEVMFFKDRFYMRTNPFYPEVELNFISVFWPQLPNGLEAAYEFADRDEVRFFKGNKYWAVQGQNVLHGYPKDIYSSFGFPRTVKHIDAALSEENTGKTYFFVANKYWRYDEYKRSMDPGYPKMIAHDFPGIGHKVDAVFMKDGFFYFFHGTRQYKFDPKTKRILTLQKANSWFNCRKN

[1] = biological target: T2, Muscarinic acetylcholine receptor M2 (Homo sapiens, UniProt P08172); format: cell membranes, CHO-K1, Membrane; conditions: cho-k1; also: in other assays of this panel Not Active means under 50% inhibition at 10 µM
T2 sequence (P08172 whole entry): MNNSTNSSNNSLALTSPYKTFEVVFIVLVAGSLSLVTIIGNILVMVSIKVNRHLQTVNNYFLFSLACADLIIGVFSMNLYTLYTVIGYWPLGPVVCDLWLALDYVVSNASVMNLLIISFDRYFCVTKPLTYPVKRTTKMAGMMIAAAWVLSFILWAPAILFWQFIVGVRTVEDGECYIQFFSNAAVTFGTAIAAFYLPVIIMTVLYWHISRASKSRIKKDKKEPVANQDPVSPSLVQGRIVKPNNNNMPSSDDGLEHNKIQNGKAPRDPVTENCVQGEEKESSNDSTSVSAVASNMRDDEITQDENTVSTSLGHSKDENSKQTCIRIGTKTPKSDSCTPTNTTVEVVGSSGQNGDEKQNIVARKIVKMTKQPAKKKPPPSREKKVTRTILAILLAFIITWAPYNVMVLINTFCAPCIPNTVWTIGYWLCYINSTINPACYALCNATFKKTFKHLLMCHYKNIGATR

Calcitonin receptor = biological target: T3, Calcitonin receptor (Homo sapiens, UniProt P30988); format: cell membranes, Membrane; conditions: t47d; also: in other assays of this panel Not Active means under 50% inhibition at 10 µM
T3 sequence (P30988 whole entry): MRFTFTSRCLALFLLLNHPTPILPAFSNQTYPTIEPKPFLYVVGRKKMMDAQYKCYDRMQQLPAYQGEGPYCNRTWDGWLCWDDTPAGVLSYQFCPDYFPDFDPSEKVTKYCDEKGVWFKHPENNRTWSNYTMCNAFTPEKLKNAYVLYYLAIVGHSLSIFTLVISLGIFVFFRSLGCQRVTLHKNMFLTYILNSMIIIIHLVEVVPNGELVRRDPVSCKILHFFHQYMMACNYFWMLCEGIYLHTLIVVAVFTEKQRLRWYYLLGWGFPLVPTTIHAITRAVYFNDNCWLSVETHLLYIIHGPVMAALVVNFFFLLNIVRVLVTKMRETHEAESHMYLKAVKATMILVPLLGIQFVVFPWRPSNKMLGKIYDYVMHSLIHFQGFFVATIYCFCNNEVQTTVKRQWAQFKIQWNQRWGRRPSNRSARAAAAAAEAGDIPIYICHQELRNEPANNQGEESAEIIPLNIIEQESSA

Mu-type opioid receptor = Mu-type opioid receptor (Homo sapiens, UniProt P35372); experiment: DRUGMATRIX: Opiate mu (OP3, MOP) radioligand binding (ligand: [3H] Diprenorphine); format: cell membranes, CHO-K1, Membrane; conditions: cho-k1; Not Active = under 50% inhibition at 10 µM
Mu-type opioid receptor, sequence (P35372 whole entry): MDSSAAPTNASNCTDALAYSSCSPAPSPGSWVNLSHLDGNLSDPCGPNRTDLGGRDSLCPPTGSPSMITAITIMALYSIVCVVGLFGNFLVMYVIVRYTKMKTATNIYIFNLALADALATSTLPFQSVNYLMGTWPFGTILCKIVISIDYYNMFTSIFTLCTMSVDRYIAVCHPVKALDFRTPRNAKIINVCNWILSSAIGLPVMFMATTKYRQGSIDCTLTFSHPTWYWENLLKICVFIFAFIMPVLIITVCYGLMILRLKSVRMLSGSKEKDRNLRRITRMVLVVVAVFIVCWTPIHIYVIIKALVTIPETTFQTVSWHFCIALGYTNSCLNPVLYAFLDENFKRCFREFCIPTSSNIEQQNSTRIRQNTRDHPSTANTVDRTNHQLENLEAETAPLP

[2] = biological target: T4, C-X-C chemokine receptor type 2 (Homo sapiens, UniProt P25025); format: cell membranes, Membrane; conditions: cho-k1; also: in other assays of this panel Not Active means under 50% inhibition at 10 µM
T4 sequence (P25025 whole entry): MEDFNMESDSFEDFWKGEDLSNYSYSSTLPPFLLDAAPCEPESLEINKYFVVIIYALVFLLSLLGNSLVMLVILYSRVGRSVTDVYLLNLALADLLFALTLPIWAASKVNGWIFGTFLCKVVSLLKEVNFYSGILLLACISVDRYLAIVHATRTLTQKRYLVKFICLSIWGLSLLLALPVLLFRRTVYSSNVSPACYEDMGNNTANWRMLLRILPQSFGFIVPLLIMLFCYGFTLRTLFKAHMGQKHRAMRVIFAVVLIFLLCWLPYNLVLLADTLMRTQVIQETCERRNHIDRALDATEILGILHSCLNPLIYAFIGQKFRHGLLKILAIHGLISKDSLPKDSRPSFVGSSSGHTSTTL

[3] = biological target: Protein kinase C alpha type (Homo sapiens, UniProt P17252); format: cell-based; conditions: sf9
[4] = biological target: 5-hydroxytryptamine receptor 4 (Cavia porcellus, UniProt O70528); format: cell membranes, Dunkin-Hartley, Striatum, Membrane; also: in other assays of this panel Not Active means under 50% inhibition at 10 µM
5-hydroxytryptamine receptor 4, sequence (O70528 whole entry): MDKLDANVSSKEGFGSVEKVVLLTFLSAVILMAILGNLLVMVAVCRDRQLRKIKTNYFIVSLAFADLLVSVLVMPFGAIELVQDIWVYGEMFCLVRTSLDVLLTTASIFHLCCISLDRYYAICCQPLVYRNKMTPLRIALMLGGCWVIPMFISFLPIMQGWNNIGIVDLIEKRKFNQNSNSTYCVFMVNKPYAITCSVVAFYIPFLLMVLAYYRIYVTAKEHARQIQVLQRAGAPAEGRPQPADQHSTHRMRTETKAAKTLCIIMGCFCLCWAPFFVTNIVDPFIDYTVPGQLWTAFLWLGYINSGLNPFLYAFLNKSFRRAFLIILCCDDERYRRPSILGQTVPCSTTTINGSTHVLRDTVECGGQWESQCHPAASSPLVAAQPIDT

Measured: IC50

COC(=O)Nc1nc2ccc(C(=O)c3cccs3)cc2[nH]1 [NOCODAZOLE]
Not Active: all assays above

N=C(N)NC(=O)Cc1c(Cl)cccc1Cl [GUANFACINE]
Not Active: all assays above

CC(C)NCC(O)COc1cccc2[nH]ccc12 (centres undefined) [PINDOLOL]
Not Active: all assays above

CC(=O)[C@@]1(O)CC[C@H]2[C@@H]3CCC4=CC(=O)CC[C@]4(C)[C@H]3CC[C@@]21C [HYDROXYPROGESTERONE]
Not Active: all assays above

CCCOc1ccc(C(=O)OCCN(CC)CC)cc1N [PROPARACAINE]
Not Active: all assays above

O=C(N/N=C/c1ccc([N+](=O)[O-])o1)c1cc([N+](=O)[O-])cc([N+](=O)[O-])c1O [NIFURSOL]
Not Active: all assays above

CN(C)[C@@H]1C(O)=C(C(N)=O)C(=O)[C@@]2(O)C(O)=C3C(=O)c4c(O)ccc(Cl)c4[C@@](C)(O)[C@H]3C[C@@H]12 [CHLORTETRACYCLINE]
Not Active: all assays above

CCC1(CCC(C)C)C(=O)NC(=O)NC1=O [AMOBARBITAL]
Not Active: all assays above

CC(C(=O)O)c1cccc(Oc2ccccc2)c1 (centres undefined) [FENOPROFEN]
Not Active: all assays above

NNc1nncc2ccccc12 [HYDRALAZINE]
Not Active: all assays above

O=C1O[C@H]([C@@H](O)CO)C(O)=C1O [ASCORBIC ACID]
Not Active: all assays above

COc1cc([C@@H]2c3cc4c(cc3[C@@H](O[C@@H]3O[C@@H]5CO[C@@H](C)O[C@H]5[C@H](O)[C@H]3O)[C@H]3COC(=O)[C@H]23)OCO4)cc(OC)c1O [ETOPOSIDE]
Not Active: all assays above

CC(C)=CCC/C(C)=C/CO [GERANIOL]
Not Active: all assays above

COc1ccc(C(=O)N2CCCC2=O)cc1
Not Active: all assays above

CCCNCC(O)COc1ccccc1C(=O)CCc1ccccc1 (centres undefined) [PROPAFENONE]
Not Active: all assays above

NCCCC(O)(P(=O)(O)O)P(=O)(O)O [ALENDRONIC ACID]
Not Active: all assays above

Cn1c(=O)c2[nH]cnc2n(C)c1=O.Cn1c(=O)c2[nH]cnc2n(C)c1=O.NCCN [AMINOPHYLLINE]
Not Active: all assays above

CCCN(CCC)S(=O)(=O)c1ccc(C(=O)O)cc1 [PROBENECID]
Not Active: all assays above

C[C@H]1O[C@@H](n2cc(F)c(=O)[nH]c2=O)[C@H](O)[C@@H]1O [DOXIFLURIDINE]
Not Active: all assays above

CC[C@H]1CN2CCc3cc(OC)c(OC)cc3[C@@H]2C[C@@H]1C[C@H]1NCCc2cc(OC)c(OC)cc21 [EMETINE]
Not Active: all assays above

COC(=O)CCc1ccc(OCC(O)CNC(C)C)cc1 (centres undefined) [ESMOLOL]
Not Active: all assays above

C[C@@H]1O[C@@H](O[C@@H]2C=C3CC[C@@H]4[C@H](CC[C@]5(C)[C@@H](c6ccc(=O)oc6)CC[C@]45O)[C@@]3(C)CC2)[C@H](O)[C@H](O)[C@H]1O [PROSCILLARIDIN]
not listed: Mu-type opioid receptor
Not Active: all other assays above

C[C@@H]1C[C@H]2[C@@H]3CCC4=CC(=O)C=C[C@]4(C)[C@@]3(F)[C@@H](O)C[C@]2(C)[C@@]1(O)C(=O)CO [DEXAMETHASONE]
Not Active: all assays above

Brc1c(NC2=NCCN2)ccc2nccnc12 [BRIMONIDINE]
Not Active: all assays above

CN1[C@@H]2CC[C@H]1C[C@@H](OC(=O)C(CO)c1ccccc1)C2 (some centres undefined) [ATROPINE]
not listed: [1]
Not Active: all other assays above

C[C@@H](CO)NC(=O)[C@@H]1C=C2c3cccc4[nH]cc(c34)C[C@H]2N(C)C1 [ERGONOVINE]
not listed: Mu-type opioid receptor
Not Active: all other assays above
